Assay results published in patent US5360907A, “Pyrrolo[3,2-B]pyridinylalkyl benzamide derivatives” (G.D. Searle & Co., priority 1993, dated 1994).

System: human platelets
Assay: Assay B: Human Platelet Aggregation Inhibition (PAF-induced aggregation in human platelet-rich plasma)
Format: cell-based
Conditions: 37°
Protocol: Compounds of the invention were evaluated for their ability to inhibit PAF-induced aggregation of human platelets in a human-platelet-rich plasma. Venous blood was collected from donors who fasted for 8 hours and were instructed not to use antiinflammatory drugs for 2 weeks prior to the blood draw. Blood was collected into syringes containing 0.1 ml of 3.8% [w/v] citrate and centrifuged in polypropylene tubes at 150 xg for 20 minutes at room temperature. The platelet rich plasma [PRP] was collected and let sit for 20 minutes at room temperature. Platelet activating factor [PAF] was diluted in 0.9% NaCl with 0.25% bovine serum albumin. Silicon treated cuvettes with stir bars were placed in the 37° heating block of the platelet aggregometer [Bio/Data Corporation, Platelet Aggregation Profiler, Model PAP-4]. PRP and test compound were added to cuvettes and aggregation monitored for 10-15 seconds at 37° with stirring. PAF was added and aggregation monitored for an additional 3 minutes. Peak aggregation was considered the peak of the first aggregation wave, usually 45-60 seconds after PAF addition. Inhibition of aggregation was determined by the following: 1-[(% aggregation in the presence of compound).div.(% maximal aggregation)]. A log/logit transformation was used to determine half maximal inhibitory concentration of a test compound [IC50 ].

Row | IC50 [nM] | Compound
1 | 2 | COc1cc(C(=O)N(C(C)C)C2CCCCC2)ccc1Cn1ccc2ncccc21 [Example 1, N-cyclohexyl-3-methoxy-N-(1-methylethyl)-4-(1H-pyrrolo[3,2-b]pyridin-1-ylmethyl)benzamide]

Target: T1, PAF receptor (Homo sapiens, UniProt P25105)
T1 construct: human platelet membrane preparation; tissue Lifesource, Inc. (Glenview, Ill.); host or cells: human packed platelets (membrane preparation)
T1 sequence (P25105 whole entry): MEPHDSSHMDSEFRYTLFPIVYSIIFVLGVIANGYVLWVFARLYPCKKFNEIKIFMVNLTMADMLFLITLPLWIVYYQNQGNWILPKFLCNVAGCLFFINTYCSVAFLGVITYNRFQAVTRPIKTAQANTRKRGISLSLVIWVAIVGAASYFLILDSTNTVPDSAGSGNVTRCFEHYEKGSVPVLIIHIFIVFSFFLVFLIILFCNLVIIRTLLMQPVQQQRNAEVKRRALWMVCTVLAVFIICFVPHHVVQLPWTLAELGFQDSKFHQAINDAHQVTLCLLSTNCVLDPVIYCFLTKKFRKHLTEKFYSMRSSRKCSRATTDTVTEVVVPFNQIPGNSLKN
Assay: Assay A: Human Platelet Receptor Binding (inhibition of specific [^3 H]PAF binding to human platelet membrane preparation)
Conditions: 0.75 nM [^3 H]PAF, human platelet membranes, 30 minutes at 24° C.
Protocol: Compounds of the invention were evaluated for their ability to inhibit specific binding of [^3 H]PAF to human platelet membrane preparation. Human packed platelets were obtained from Lifesource, Inc. (Glenview, Ill.) and washed 3 times with 10 mM Trizma pH 7.0, 2 mM EDTA (dipotassium salt), 150 mM KCl and then once with 10 mM Trizma 7.4, 20 mM CaCl2. The platelets were broken by freezing in a dry ice-ethanol bath, followed by thawing in 24° C. water baths. The preparation was centrifuged (40,000×g, 20 minutes, 4'C) and the pellet suspended in 10 mM Trizma 7.4, 20 mM CaCl2, 5 mg/ml human albumin. Protein concentration in the platelet membrane preparation was determined by the Lowry method [O. H. Lowry et al., J. Biol. Chem., 193, 265-275 (1951)]. Aliquots of the membrane preparation were stored at -70° C. Each preparation was characterized for PAF receptor number and dissociation constant (Kd). In binding assays 5 μl of test compound, solubilized in DMSO, was added to polypropylene tubes along with 0.75 nM [^3 H]PAF and 200 mcl [0.075 nM] of membranes and 95 μl 10 mM Trizma 7.4, 20 mM CaCl2, 5 mg/ml human albumin. Tubes were incubated for 30 minutes at 24° C. The incubation was terminated by adding 4 ml of ice-cold 10 mM Trizma pH 7.4, 20 mM CaCl2 and 20 mg/ml BSA prior to vacuum filtration using Whatman GF/C filters. Filters were prepared and counted for a scintillation counter. All DPM values were corrected for background and isotope decay. Triplicate determinations for single doses were averaged. The amount of non-specific binding was subtracted from all dose averages, giving an amount of specific binding in all cases. The IC50 values for the compounds of the invention were determined by the Allfit program using percent displacement data. (Allfit is a `basic` computer program for simultaneous curve fitting of a family of signoidal dose-response curves using the four parameter logistic equation.) Results are shown in Table I.

Row | Compound | IC50 [nM]
2 | COc1cc(Cn2ccc3ncccc32)ccc1C(=O)N(C(C)C)C1CCCCC1 [Example 3, N-cyclohexyl-2-methoxy-N-(1-methylethyl)-4-(1H-pyrrolo[3,2-b]pyridin-1-ylmethyl)benzamide] | 2
3 | COc1cc(Cn2ccc3ncccc32)ccc1C(=O)N(C1CCCCC1)C1CCC1 [Example 4, N-cyclobutyl-N-cyclohexyl-2-methoxy-4-(1H-pyrrolo[3,2-b]pyridin-1-ylmethyl)benzamide] | 7
4 | Cc1cc(C(=O)N(C2CCCCC2)C2CCCC2)ccc1Cn1ccc2ncccc21 [Example 6, N-cyclohexyl-N-cyclopentyl-3-methyl-4-(1H-pyrrolo[3,2-b]pyridin-1-ylmethyl)benzamide] | 39
5 | CC(C)N(C(=O)c1ccc(Cn2ccc3ncccc32)c(Br)c1)C1CCCCC1 [Example 7, 3-bromo-N-cyclohexyl-N-(1-methylethyl)-4-(1H-pyrrolo[3,2-b]pyridin-1-ylmethyl)benzamide] | 8

Second part, the compound after the results:

Row | IC50 [nM] | Compound
6 | 38 | COc1cc(C(=O)N(C(C)C)C2CCCCC2)ccc1Cn1ccc2ncccc21 [Example 1, N-cyclohexyl-3-methoxy-N-(1-methylethyl)-4-(1H-pyrrolo[3,2-b]pyridin-1-ylmethyl)benzamide]
7 | 15 | COc1cc(Cn2ccc3ncccc32)ccc1C(=O)N(C1CCCC1)C1CC(C)CC(C)C1 (stereo not shown) [Example 5, N-cyclopentyl-N-(3,5-dimethylcyclohexyl)-2-methoxy-4-(1H-pyrrolo[3,2-b]pyridin-1-ylmethyl)benzamide]
